Measured values published in PubChem BioAssay (NCI).
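Cells were grown in 96-well plates and exposed to each compound for 48 hours at five concentrations; endpoints were interpolated linearly between bracketing concentrations, or set to the highest concentration if not reached. The concentration for full growth arrest is given as TGI.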

Tests used:
Assay in all cases: NCI-60 cell line screen, 48 h
CAKI-1 renal = system: CAKI-1 renal
HOP-92 NSCLC = system: HOP-92 NSCLC
RXF 393 renal = system: RXF 393 renal
MOLT-4 leukemia = system: MOLT-4 leukemia
MALME-3M melanoma = system: MALME-3M melanoma
SK-MEL-2 melanoma = system: SK-MEL-2 melanoma
SNB-19 CNS = system: SNB-19 CNS
OVCAR-5 ovarian = system: OVCAR-5 ovarian
NCI-H522 lung = system: NCI-H522 lung
OVCAR-4 ovarian = system: OVCAR-4 ovarian
RPMI-8226 leukemia = system: RPMI-8226 leukemia
PC-3 prostate = system: PC-3 prostate
UACC-257 melanoma = system: UACC-257 melanoma
SF-268 CNS = system: SF-268 CNS
T-47D breast = system: T-47D breast
IGROV1 ovarian = system: IGROV1 ovarian
HCT-15 colon = system: HCT-15 colon
DU-145 prostate = system: DU-145 prostate
SR leukemia = system: SR leukemia
SF-539 CNS = system: SF-539 CNS

Compound | TGI (CAKI-1 renal) | TGI (HOP-92 NSCLC) | TGI (RXF 393 renal) | TGI (MOLT-4 leukemia) | TGI (MALME-3M melanoma) | TGI (SK-MEL-2 melanoma) | TGI (SNB-19 CNS) | TGI (OVCAR-5 ovarian) | TGI (NCI-H522 lung) | TGI (OVCAR-4 ovarian) | TGI (RPMI-8226 leukemia) | TGI (PC-3 prostate) | TGI (UACC-257 melanoma) | TGI (SF-268 CNS) | TGI (T-47D breast) | TGI (IGROV1 ovarian) | TGI (HCT-15 colon) | TGI (DU-145 prostate) | TGI (SR leukemia) | TGI (SF-539 CNS)
CCCCCCCCCCCCCCCCCCNC(=O)C(N)Cc1ccc(OCc2ccccc2)cn1 (stereo unspecified) | 32.7 µM | 41.3 µM | 42.4 µM | 55 µM | 42.9 µM | 33.3 µM | 42.5 µM | 43.1 µM | 38.5 µM | 34 µM | 80.6 µM | 27.7 µM | 43.7 µM | 43.4 µM | 50.7 µM | 32.6 µM | 37.3 µM | 43.4 µM | – | –
O=C1/C(=C\c2ccc(O)cc2)CCC/C1=C/c1ccc(Cl)c(Cl)c1 | 16.7 µM | 28.9 µM | 5.8 µM | 5.8 µM | 17.5 µM | 36.9 µM | 18.3 µM | 34.3 µM | – | 5.93 µM | 5.76 µM | 12.7 µM | 15.7 µM | 11.9 µM | 33.3 µM | 1.17 µM | 9.75 µM | 9.8 µM | – | –
C1=NCCN2CCN(CCN=Cc3ccc(cc3)OCc3cccc(n3)COc3ccc1cc3)CC2 | – | > 50 µM | > 50 µM | > 50 µM | > 50 µM | > 50 µM | > 50 µM | > 50 µM | > 50 µM | > 50 µM | > 50 µM | > 50 µM | > 50 µM | > 50 µM | – | > 50 µM | > 50 µM | > 50 µM | > 50 µM | > 50 µM
COC(=O)[C@@H]1CN(C(C)=O)C(=O)N1 | > 100 µM | > 100 µM | > 100 µM | > 100 µM | > 100 µM | > 100 µM | > 100 µM | > 100 µM | > 100 µM | > 100 µM | > 100 µM | > 100 µM | > 100 µM | > 100 µM | > 100 µM | > 100 µM | > 100 µM | > 100 µM | – | > 100 µM
Cc1nc2ccccc2n1COC(Cn1ccnc1)c1ccc(Cl)cc1Cl (stereo unspecified) | 39 µM | 77.6 µM | – | > 100 µM | > 100 µM | > 100 µM | > 100 µM | > 100 µM | > 100 µM | > 100 µM | > 100 µM | > 100 µM | > 100 µM | > 100 µM | > 100 µM | > 100 µM | > 100 µM | > 100 µM | > 100 µM | > 100 µM
C=CCN1C(=O)C=C(c2ccccc2)n2ncc3cccc1c32 | > 100 µM | > 100 µM | – | > 100 µM | > 100 µM | > 100 µM | > 100 µM | > 100 µM | > 100 µM | – | > 100 µM | > 100 µM | > 100 µM | > 100 µM | > 100 µM | > 100 µM | > 100 µM | > 100 µM | > 100 µM | > 100 µM
O=C1CCC2C(O)c3cc4c(cc3C(c3ccc5c(c3)OCO5)N12)OCO4 (stereo unspecified) | > 100 µM | 66.8 µM | – | > 100 µM | > 100 µM | > 100 µM | > 100 µM | > 100 µM | > 100 µM | > 100 µM | > 100 µM | > 100 µM | > 100 µM | 52.5 µM | > 100 µM | > 100 µM | > 100 µM | > 100 µM | > 100 µM | > 100 µM
O=C(CN1CCCCC1)Nc1ccc2sc3ccccc3c(=O)c2n1 | 37.7 µM | 30 µM | – | 30 µM | 49 µM | 41 µM | 59.8 µM | 38.9 µM | 23.1 µM | > 100 µM | 45.1 µM | 50.1 µM | 39.7 µM | 74.3 µM | > 100 µM | 37.4 µM | 40.2 µM | > 100 µM | > 100 µM | 31.6 µM
CC1=NN(C(=O)c2ccccc2O)C(=O)/C1=C/c1ccco1 | 19.7 µM | > 71.4 µM | – | > 100 µM | 73.1 µM | > 100 µM | > 91.1 µM | > 100 µM | 37.7 µM | > 84.8 µM | > 92.6 µM | 46 µM | > 83.1 µM | > 100 µM | > 100 µM | > 35.4 µM | > 100 µM | > 100 µM | > 100 µM | 10.7 µM
C=CCNC1=C2C[C@@H](C)C[C@@H](OC)[C@H](OC(=O)CCN)[C@H](C)/C=C(\C)[C@@H](OC(N)=O)[C@H](OC)/C=C\C=C(/C)C(=O)NC(=CC1=O)C2=O | 25.6 µM | 16.9 µM | 15.1 µM | 12.7 µM | 14.1 µM | 7.12 µM | 20.9 µM | 23.3 µM | 20.2 µM | 21.3 µM | 32.5 µM | – | 10.3 µM | 25.5 µM | 15.5 µM | 19.6 µM | 23.7 µM | 16 µM | > 100 µM | –
Cc1cc2ccccc2n2c1nc1ccccc12 | – | > 100 µM | > 100 µM | > 100 µM | > 100 µM | – | > 100 µM | > 100 µM | – | – | > 100 µM | > 100 µM | > 100 µM | > 100 µM | > 100 µM | > 100 µM | > 100 µM | > 100 µM | > 100 µM | > 100 µM
O=C1CCCCC/C1=C\c1cccc(Cl)c1 | > 100 µM | > 100 µM | – | > 100 µM | > 100 µM | > 100 µM | > 100 µM | > 100 µM | > 100 µM | 83.3 µM | > 100 µM | 80.4 µM | > 100 µM | 68.2 µM | > 100 µM | > 100 µM | > 100 µM | > 100 µM | > 100 µM | –
O=S1(=O)N=C(SCc2ccccc2)N(c2ccccc2)c2ccncc21 | > 100 µM | 82.7 µM | > 100 µM | > 100 µM | > 100 µM | > 100 µM | > 100 µM | > 100 µM | 56.3 µM | > 100 µM | – | > 100 µM | > 100 µM | > 100 µM | > 100 µM | – | > 100 µM | > 100 µM | > 100 µM | > 100 µM
